These results are taken from patent US5698444A (Eli Lilly and Company, priority 1993, dated 1997).

Like-named read-outs stand apart in the source and are kept apart here.

The target in the assay is T1, human 5-HT2B receptor (Homo sapiens, UniProt P41595).
T1 construct: expressed in transfected cells
The experiment in a line: competition assay: inhibition of binding of [3H]5-hydroxytryptamine to the cloned human 5-HT2B receptor (cell membranes).

T1 sequence (P41595 whole entry): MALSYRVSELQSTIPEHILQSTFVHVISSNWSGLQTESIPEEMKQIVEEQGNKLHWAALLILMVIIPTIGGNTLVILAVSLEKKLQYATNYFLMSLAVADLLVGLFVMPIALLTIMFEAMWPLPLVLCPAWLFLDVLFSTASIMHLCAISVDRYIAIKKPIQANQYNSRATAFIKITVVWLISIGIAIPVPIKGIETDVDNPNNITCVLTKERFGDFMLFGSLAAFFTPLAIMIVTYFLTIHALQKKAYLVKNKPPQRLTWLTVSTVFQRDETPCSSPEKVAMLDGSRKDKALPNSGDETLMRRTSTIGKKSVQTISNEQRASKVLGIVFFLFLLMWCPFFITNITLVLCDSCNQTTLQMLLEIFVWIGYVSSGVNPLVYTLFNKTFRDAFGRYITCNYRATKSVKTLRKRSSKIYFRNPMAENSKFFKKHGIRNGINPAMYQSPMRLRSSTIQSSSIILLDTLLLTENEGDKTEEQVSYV

The compound `CC(N)Cc1c[nH]c2ccc(O)cc12` (stereo not drawn) [α-methyl-5-hydroxytryptamine, 3-(2-aminopropyl)-1H-indol-5-ol] returned an IC50 of 11.8 nM.
Still for that read-out and setting: the result for `c1ccc2c(N3CCNCC3)cccc2c1` [1-(1-naphthyl)piperazine, 1-(1-Naphthyl)piperazine] reads 2.41 nM.
Regarding `O=C(CCCN1CCC2(CC1)C(=O)NCN2c1ccccc1)c1ccc(F)cc1` [spiperone, 8-[4-(4-fluorophenyl)4-oxobutyl]-1-phenyl-1,3,8-triazaspiro[4,5]decan-4-one], the IC50 (read-out: IC50 (concentration which displaces or inhibits the binding of 50% of the labeled 5-hydroxytryptamine)) was found to be 691 nM.
